{"source": "patent US8921362B2", "about": "“6,7-dialkoxy quinazoline derivatives and methods of treating drug resistant and other tumors” (Natco Pharma Limited, priority 2008, dated 2014)", "key": {"ABL1(Q252H)": {"molecular_target": "T1, ABL1(Q252H) (Homo sapiens, UniProt P00519, Q252H)", "T1 construct": "host or cells: E. coli (BL21-derived), T7 phage lysate", "test": "KinomeScan", "format": "binding", "settings": "read-out: % Ctrl @ 10000 nM", "experimental": "(§1) Kinase assays: Assays were performed as described in Fabian et al. (2005) Nature Biotechnology, vol. 23, p. 329. Kinase-tagged T7 phage strains were grown in parallel in 24 or 96-well blocks in an E. coli host derived from the BL21 strain. E. coli were grown to log-phase and infected with T7 phage from a frozen stock (multiplicity of infection ˜0.1) and incubated with shaking at 32° C. until lysis (−90 minutes). The lysates were centrifuged and filtered to remove cell debris. […] The liganded beads were blocked with excess biotin and washed with blocking buffer (SeaBlock (Pierce), 1% BSA, 0.05% Tween 20, 1 mM DTT) to remove unbound ligand and to reduce non-specific phage binding.\n(§2) Test compounds were prepared as 40× stocks in DMSO and diluted into the aqueous environment. 2.5% DMSO was added to control assays lacking a test compound. All reactions were performed in polystyrene 96-well plates that had been pretreated with blocking buffer in a final volume of 0.04 ml. […] The phage titer in the eluates was measured by quantitative PCR."}, "ACVRL1": {"molecular_target": "T2, ACVRL1 (Homo sapiens, UniProt P37023)", "T2 construct": "host or cells: E. coli (BL21-derived), T7 phage lysate", "T2 sequence (P37023 22-503)": "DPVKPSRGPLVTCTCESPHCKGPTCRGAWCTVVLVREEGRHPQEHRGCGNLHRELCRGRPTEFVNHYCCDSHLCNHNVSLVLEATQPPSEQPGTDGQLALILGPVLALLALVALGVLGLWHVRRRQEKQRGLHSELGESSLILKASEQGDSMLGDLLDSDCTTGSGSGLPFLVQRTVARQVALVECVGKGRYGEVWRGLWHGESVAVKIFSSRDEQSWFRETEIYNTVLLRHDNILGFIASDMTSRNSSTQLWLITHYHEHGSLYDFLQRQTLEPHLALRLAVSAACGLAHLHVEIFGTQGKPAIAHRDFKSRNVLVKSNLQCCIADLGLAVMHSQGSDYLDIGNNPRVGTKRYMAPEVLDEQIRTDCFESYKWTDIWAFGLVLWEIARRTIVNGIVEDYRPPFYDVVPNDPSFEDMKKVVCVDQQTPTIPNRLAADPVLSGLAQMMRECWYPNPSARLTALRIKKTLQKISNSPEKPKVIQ", "test": "KinomeScan", "format": "binding", "settings": "read-out: % Ctrl @ 10000 nM", "experimental": "as §1, §2"}, "ARK5": {"molecular_target": "T3, ARK5 (Homo sapiens, UniProt O60285)", "T3 construct": "host or cells: E. coli host derived from BL21", "test": "KinomeScan", "format": "binding", "settings": "read-out: % Ctrl @ 10000 nM", "experimental": "as §1, §2"}, "BMPR1A": {"molecular_target": "T4, BMPR1A (Homo sapiens, UniProt P36894)", "T4 construct": "host or cells: E. coli host derived from BL21", "T4 sequence (P36894 24-532)": "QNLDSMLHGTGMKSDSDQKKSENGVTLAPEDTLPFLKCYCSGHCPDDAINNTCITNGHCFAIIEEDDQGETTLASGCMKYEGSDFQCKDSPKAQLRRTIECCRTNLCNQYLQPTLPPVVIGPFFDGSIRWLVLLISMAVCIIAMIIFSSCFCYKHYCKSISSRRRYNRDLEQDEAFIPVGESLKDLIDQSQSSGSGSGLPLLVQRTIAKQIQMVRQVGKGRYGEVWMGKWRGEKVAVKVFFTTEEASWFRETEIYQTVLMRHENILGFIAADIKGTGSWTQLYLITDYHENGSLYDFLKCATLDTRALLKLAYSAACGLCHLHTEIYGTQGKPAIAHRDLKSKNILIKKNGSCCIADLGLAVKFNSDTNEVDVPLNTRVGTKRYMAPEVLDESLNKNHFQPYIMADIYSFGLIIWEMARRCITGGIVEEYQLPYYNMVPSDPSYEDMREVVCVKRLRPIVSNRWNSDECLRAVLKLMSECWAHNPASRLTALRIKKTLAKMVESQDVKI", "test": "KinomeScan", "format": "binding", "settings": "read-out: % Ctrl @ 10000 nM", "experimental": "as §1, §2"}, "CAMK1D": {"molecular_target": "T5, CAMK1D (Homo sapiens, UniProt Q8IU85)", "T5 construct": "host or cells: E. coli host derived from BL21", "test": "KinomeScan", "format": "binding", "settings": "read-out: % Ctrl @ 10000 nM", "experimental": "as §1, §2"}, "CAMK2B": {"molecular_target": "T6, CAMK2B (Homo sapiens, UniProt Q13554)", "T6 construct": "host or cells: E. coli host derived from BL21", "test": "KinomeScan", "format": "binding", "settings": "read-out: % Ctrl @ 10000 nM", "experimental": "as §1, §2"}, "CAMKK1": {"molecular_target": "T7, CAMKK1 (Homo sapiens, UniProt Q8N5S9)", "T7 construct": "host or cells: T7 phage in E. coli host derived from BL21", "test": "KinomeScan", "format": "binding", "settings": "read-out: % Ctrl @ 10000 nM", "experimental": "as §1, §2"}, "CDK11": {"molecular_target": "T8, CDK11 (Homo sapiens, UniProt Q9BWU1)", "T8 construct": "host or cells: T7 phage in E. coli host derived from BL21", "test": "KinomeScan", "format": "binding", "settings": "read-out: % Ctrl @ 10000 nM", "experimental": "as §1, §2"}, "CHEK1": {"molecular_target": "T9, CHEK1 (Homo sapiens, UniProt O14757)", "T9 construct": "host or cells: T7 phage in E. coli host derived from BL21", "test": "KinomeScan", "format": "binding", "settings": "read-out: % Ctrl @ 10000 nM", "experimental": "as §1, §2"}, "CSNK1D": {"molecular_target": "T10, CSNK1D (Homo sapiens, UniProt P48730)", "T10 construct": "host or cells: T7 phage in E. coli host derived from BL21", "test": "KinomeScan", "format": "binding", "settings": "read-out: % Ctrl @ 10000 nM", "experimental": "as §1, §2"}, "DRAK1": {"molecular_target": "T11, DRAK1 (Homo sapiens, UniProt Q9UEE5)", "T11 construct": "purchased Ambit Biosciences Corp (KinomeScan); host or cells: T7 phage in E. coli host derived from BL21", "test": "KinomeScan", "format": "binding", "settings": "read-out: % Ctrl @ 10000 nM", "experimental": "as §1, §2"}, "EGFR": {"molecular_target": "T12, EGFR (Homo sapiens, UniProt P00533)", "T12 construct": "purchased Ambit Biosciences Corp (KinomeScan); host or cells: T7 phage in E. coli host derived from BL21", "test": "KinomeScan", "format": "binding", "settings": "read-out: % Ctrl @ 10000 nM", "experimental": "as §1, §2"}, "EPHA7": {"molecular_target": "T13, EPHA7 (Homo sapiens, UniProt Q15375)", "T13 construct": "purchased Ambit Biosciences Corp; host or cells: T7 phage in E. coli host derived from BL21", "test": "KinomeScan", "format": "binding", "settings": "read-out: % Ctrl @ 10000 nM", "experimental": "as §1, §2"}, "FLT1": {"molecular_target": "T14, FLT1 (Homo sapiens, UniProt P17948)", "T14 construct": "host or cells: T7 phage in E. coli host derived from BL21", "test": "KinomeScan", "format": "binding", "settings": "read-out: % Ctrl @ 10000 nM", "experimental": "as §1, §2"}, "GCN2(Kin.Dom.2.S808G)": {"molecular_target": "T15, GCN2(Kin.Dom.2.S808G) (Homo sapiens, UniProt Q9P2K8, S808G)", "T15 construct": "GCN2(KIN.DOM.2, S808G); host or cells: T7 phage in E. coli host derived from BL21", "T15 sequence (Q9P2K8 590-1001 S808G limits assumed)": "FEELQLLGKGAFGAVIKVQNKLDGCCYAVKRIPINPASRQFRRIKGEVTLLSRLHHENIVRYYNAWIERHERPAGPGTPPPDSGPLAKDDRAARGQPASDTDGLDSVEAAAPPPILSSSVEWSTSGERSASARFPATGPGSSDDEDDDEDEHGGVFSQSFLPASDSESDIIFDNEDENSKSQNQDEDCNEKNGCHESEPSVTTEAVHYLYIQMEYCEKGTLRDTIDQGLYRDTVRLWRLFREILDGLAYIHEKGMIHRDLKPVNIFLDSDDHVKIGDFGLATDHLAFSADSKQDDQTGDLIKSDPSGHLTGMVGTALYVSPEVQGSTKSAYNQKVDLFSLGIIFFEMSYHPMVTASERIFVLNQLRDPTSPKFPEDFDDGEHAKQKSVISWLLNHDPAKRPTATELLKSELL", "test": "KinomeScan", "format": "binding", "settings": "read-out: % Ctrl @ 10000 nM", "experimental": "as §1, §2"}, "LATS2": {"molecular_target": "T16, LATS2 (Homo sapiens, UniProt Q9NRM7)", "T16 construct": "host or cells: T7 phage grown in E. coli host derived from BL21", "test": "KinomeScan", "format": "binding", "settings": "read-out: % Ctrl @ 10000 nM", "experimental": "as §1, §2"}, "MELK": {"molecular_target": "T17, MELK (Homo sapiens, UniProt Q14680)", "T17 construct": "host or cells: E. coli host derived from the BL21 strain, infected with T7 phage", "test": "KinomeScan", "format": "binding", "settings": "read-out: % Ctrl @ 10000 nM", "experimental": "as §1, §2"}, "PCTK2": {"molecular_target": "T18, PCTK2 (Homo sapiens, UniProt Q00537)", "T18 construct": "host or cells: E. coli host derived from BL21, infected with T7 phage", "test": "KinomeScan", "format": "binding", "settings": "read-out: % Ctrl @ 10000 nM", "experimental": "as §1, §2"}, "PLK1": {"molecular_target": "T19, PLK1 (Homo sapiens, UniProt P53350)", "T19 construct": "host or cells: T7 phage in E. coli host derived from BL21", "test": "KinomeScan", "format": "binding", "settings": "read-out: % Ctrl @ 10000 nM", "experimental": "as §1, §2"}, "RET(V804M)": {"molecular_target": "T20, RET(V804M) (Homo sapiens, UniProt P07949, V804M)", "T20 construct": "host or cells: E. coli host derived from BL21, T7 phage display", "T20 sequence (P07949 29-1114 V804M)": "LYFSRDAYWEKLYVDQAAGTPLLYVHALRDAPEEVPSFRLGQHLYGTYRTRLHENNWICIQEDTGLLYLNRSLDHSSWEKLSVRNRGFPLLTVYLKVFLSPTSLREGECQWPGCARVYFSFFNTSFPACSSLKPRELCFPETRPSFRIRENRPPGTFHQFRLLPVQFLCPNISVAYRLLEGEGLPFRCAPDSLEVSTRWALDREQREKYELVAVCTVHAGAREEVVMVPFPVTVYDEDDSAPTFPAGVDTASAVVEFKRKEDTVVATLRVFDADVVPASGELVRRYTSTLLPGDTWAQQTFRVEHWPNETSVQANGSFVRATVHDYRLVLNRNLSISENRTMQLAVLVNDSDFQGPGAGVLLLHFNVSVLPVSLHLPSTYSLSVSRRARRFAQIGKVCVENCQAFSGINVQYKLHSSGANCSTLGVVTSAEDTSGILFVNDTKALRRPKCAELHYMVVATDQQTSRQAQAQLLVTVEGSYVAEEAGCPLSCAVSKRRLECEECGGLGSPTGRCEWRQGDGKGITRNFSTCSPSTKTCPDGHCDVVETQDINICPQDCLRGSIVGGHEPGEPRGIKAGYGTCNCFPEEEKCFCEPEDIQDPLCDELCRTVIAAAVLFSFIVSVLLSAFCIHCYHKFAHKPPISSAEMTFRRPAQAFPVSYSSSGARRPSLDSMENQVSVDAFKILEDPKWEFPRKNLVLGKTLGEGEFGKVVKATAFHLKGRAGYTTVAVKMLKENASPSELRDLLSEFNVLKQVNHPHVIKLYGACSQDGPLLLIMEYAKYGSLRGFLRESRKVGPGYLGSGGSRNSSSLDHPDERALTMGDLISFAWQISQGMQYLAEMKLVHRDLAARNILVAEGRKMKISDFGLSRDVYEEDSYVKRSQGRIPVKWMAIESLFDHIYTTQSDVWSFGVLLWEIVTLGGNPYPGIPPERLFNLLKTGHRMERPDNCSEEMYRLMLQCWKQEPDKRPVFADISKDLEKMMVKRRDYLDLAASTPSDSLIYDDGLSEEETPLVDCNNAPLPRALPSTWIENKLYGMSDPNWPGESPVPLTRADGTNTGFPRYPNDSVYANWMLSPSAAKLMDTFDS", "test": "KinomeScan", "format": "binding", "settings": "read-out: % Ctrl @ 10000 nM", "experimental": "as §1, §2"}, "RIOK1": {"molecular_target": "T21, RIOK1 (Homo sapiens, UniProt Q9BRS2)", "T21 construct": "host or cells: E. coli host derived from BL21, T7 phage display", "test": "KinomeScan", "format": "binding", "settings": "read-out: % Ctrl @ 10000 nM", "experimental": "as §1, §2"}, "SRC": {"molecular_target": "T22, SRC (Homo sapiens, UniProt P12931)", "T22 construct": "host or cells: T7 phage grown in E. coli (BL21-derived)", "T22 sequence (P12931 whole entry)": "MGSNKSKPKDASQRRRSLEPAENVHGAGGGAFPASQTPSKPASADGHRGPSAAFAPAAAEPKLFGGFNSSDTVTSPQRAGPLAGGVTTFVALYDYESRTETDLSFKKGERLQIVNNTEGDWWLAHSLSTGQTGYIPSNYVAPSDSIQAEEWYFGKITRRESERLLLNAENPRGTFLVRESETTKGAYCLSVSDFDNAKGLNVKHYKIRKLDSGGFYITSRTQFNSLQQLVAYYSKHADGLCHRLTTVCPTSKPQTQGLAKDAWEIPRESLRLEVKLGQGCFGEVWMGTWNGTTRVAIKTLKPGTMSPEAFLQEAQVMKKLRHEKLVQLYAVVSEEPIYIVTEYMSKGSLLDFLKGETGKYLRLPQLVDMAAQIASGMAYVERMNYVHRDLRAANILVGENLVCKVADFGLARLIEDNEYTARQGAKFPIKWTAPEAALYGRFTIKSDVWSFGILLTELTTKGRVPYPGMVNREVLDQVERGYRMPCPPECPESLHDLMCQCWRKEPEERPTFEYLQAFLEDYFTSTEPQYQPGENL", "test": "KinomeScan", "format": "binding", "settings": "read-out: % Ctrl @ 10000 nM", "experimental": "as §1, §2"}, "TRKC": {"molecular_target": "T23, TRKC (Homo sapiens, UniProt Q16288)", "T23 construct": "host or cells: E. coli host derived from BL21, T7 phage", "T23 sequence (Q16288 32-839)": "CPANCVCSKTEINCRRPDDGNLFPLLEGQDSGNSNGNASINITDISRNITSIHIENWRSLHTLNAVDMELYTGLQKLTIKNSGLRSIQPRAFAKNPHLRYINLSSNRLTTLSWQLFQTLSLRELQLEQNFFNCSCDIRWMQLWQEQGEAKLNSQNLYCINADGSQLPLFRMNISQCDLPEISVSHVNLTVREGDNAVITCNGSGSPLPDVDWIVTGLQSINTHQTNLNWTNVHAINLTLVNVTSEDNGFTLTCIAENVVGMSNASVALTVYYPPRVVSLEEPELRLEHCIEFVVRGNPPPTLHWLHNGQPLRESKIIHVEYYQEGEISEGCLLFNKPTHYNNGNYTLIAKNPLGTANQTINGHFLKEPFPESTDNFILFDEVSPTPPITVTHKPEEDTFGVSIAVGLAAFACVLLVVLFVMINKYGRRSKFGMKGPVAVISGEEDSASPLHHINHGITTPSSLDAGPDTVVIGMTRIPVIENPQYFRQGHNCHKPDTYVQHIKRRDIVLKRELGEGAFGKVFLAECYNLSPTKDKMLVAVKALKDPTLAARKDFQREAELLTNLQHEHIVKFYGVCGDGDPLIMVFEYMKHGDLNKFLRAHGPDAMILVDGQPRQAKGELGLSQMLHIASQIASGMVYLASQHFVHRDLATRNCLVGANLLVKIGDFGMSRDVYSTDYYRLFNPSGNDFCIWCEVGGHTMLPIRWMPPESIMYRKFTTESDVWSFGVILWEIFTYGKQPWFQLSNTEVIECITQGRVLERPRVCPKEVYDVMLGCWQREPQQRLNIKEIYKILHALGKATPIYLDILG", "test": "KinomeScan", "format": "binding", "settings": "read-out: % Ctrl @ 10000 nM", "experimental": "as §1, §2"}, "[1]": {"test": "Acute toxicity (LD0, LD50)", "format": "in vivo", "settings": "both, mouse, in vivo, po, 7 days", "experimental": "[…]. The doses 500, 750, 1000 and 2000 mg/Kg were administered orally. Each group included 5 mice. […] The survived animals were autopsied for asserting the absorption of compound through g.i.t. The LD50 was determined according to the method described in Litchfield and Wilcoxon (J. Pharmacol. Exp. Ther. 1949, 96:99-113)."}, "A549 human lung tumors": {"test_system": "A549 human lung tumors", "test": "Evaluation of ED50 (lung section and tumor regression studies)", "format": "in vivo, nude mice", "settings": "Mus musculus, oral route", "experimental": "ED50 values were evaluated based on the lung section and tumor regression studies."}, "hERG": {"molecular_target": "hERG (Homo sapiens, UniProt Q12809)", "test": "hERG Ikr (tail) current, whole cell patch-clamp in CHO cells", "settings": "10 μM"}, "ERBB2": {"molecular_target": "ERBB2 (Homo sapiens, UniProt P04626)", "sequence (P04626 23-1255)": "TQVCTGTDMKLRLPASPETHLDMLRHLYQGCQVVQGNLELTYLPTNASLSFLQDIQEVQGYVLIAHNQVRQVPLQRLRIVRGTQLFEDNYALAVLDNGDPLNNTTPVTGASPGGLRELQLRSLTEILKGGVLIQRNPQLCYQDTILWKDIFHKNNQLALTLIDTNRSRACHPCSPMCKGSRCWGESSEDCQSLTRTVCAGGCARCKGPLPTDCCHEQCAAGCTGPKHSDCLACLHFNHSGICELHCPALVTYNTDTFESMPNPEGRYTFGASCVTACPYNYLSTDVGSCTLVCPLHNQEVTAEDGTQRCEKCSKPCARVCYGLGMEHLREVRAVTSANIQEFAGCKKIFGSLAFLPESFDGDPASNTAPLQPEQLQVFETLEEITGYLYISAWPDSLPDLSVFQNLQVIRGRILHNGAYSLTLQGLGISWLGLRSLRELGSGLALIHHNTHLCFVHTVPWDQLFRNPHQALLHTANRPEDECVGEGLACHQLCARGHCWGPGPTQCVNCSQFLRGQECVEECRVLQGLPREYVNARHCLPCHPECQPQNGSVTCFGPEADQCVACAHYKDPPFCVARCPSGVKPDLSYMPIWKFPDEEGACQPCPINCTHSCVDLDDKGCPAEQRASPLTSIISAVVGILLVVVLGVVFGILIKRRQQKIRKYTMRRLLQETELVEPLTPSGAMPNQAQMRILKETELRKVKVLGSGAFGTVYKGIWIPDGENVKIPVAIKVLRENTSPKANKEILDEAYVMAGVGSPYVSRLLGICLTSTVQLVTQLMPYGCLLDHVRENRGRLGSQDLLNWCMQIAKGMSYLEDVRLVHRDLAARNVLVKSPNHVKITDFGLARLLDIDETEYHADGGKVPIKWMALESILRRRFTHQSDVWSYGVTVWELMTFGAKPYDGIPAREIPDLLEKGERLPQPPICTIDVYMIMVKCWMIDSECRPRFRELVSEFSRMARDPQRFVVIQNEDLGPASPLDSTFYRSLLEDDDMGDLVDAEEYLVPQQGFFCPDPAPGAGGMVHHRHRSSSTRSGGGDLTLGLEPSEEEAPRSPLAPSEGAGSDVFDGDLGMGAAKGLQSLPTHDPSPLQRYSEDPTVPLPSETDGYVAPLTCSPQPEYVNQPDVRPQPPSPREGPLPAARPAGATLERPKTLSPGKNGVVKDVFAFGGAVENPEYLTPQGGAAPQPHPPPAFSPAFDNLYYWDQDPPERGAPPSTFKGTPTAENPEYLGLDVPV", "test": "KinomeScan", "format": "binding", "parameters": "purchased Ambit Biosciences Corp; host or cells: T7 phage in E. coli host derived from BL21", "settings": "read-out: % Ctrl @ 10000 nM", "experimental": "as §1, §2"}, "ERBB4": {"molecular_target": "ERBB4 (Homo sapiens, UniProt Q15303)", "test": "KinomeScan", "format": "binding", "parameters": "purchased Ambit Biosciences Corp; host or cells: T7 phage in E. coli host derived from BL21", "settings": "read-out: % Ctrl @ 10000 nM", "experimental": "as §1, §2"}}}
{"smiles": "C#Cc1cccc(Nc2ncnc3cc(OC)c(OCCCN4CCOCC4)cc23)c1", "note": "[NRC-2694, N-(3-ethynylphenyl)-7-methoxy-6-[3-(4-morpholinyl)propoxy]-4-quinazolinamine]", "values": [{"measurement": "remaining binding at 10 µM", "setting": "ABL1(Q252H)", "value": 15, "unit": "%"}, {"measurement": "remaining binding at 10 µM", "setting": "ACVRL1", "value": 91, "unit": "%"}, {"measurement": "remaining binding at 10 µM", "setting": "ARK5", "value": 29, "unit": "%"}, {"measurement": "remaining binding at 10 µM", "setting": "BMPR1A", "value": 100, "unit": "%"}, {"measurement": "remaining binding at 10 µM", "setting": "CAMK1D", "value": 83, "unit": "%"}, {"measurement": "remaining binding at 10 µM", "setting": "CAMK2B", "value": 77, "unit": "%"}, {"measurement": "remaining binding at 10 µM", "setting": "CAMKK1", "value": 71, "unit": "%"}, {"measurement": "remaining binding at 10 µM", "setting": "CDK11", "value": 87, "unit": "%"}, {"measurement": "remaining binding at 10 µM", "setting": "CHEK1", "value": 42, "unit": "%"}, {"measurement": "remaining binding at 10 µM", "setting": "CSNK1D", "value": 25, "unit": "%"}, {"measurement": "remaining binding at 10 µM", "setting": "DRAK1", "value": 51, "unit": "%"}, {"measurement": "remaining binding at 10 µM", "setting": "EGFR", "value": 0, "unit": "%"}, {"measurement": "remaining binding at 10 µM", "setting": "EPHA7", "value": 70, "unit": "%"}, {"measurement": "remaining binding at 10 µM", "setting": "FLT1", "value": 64, "unit": "%"}, {"measurement": "remaining binding at 10 µM", "setting": "GCN2(Kin.Dom.2.S808G)", "value": 12, "unit": "%"}, {"measurement": "remaining binding at 10 µM", "setting": "LATS2", "value": 93, "unit": "%"}, {"measurement": "remaining binding at 10 µM", "setting": "MELK", "value": 57, "unit": "%"}, {"measurement": "remaining binding at 10 µM", "setting": "PCTK2", "value": 72, "unit": "%"}, {"measurement": "remaining binding at 10 µM", "setting": "PLK1", "value": 81, "unit": "%"}, {"measurement": "remaining binding at 10 µM", "setting": "RET(V804M)", "value": 100, "unit": "%"}, {"measurement": "remaining binding at 10 µM", "setting": "RIOK1", "value": 36, "unit": "%"}, {"measurement": "remaining binding at 10 µM", "setting": "SRC", "value": 24, "unit": "%"}, {"measurement": "remaining binding at 10 µM", "setting": "TRKC", "value": 80, "unit": "%"}, {"measurement": "LD0", "setting": "[1]", "value": 2000, "unit": "mg/kg"}, {"measurement": "ED50", "setting": "A549 human lung tumors", "value": 6.3, "unit": "mg/kg"}, {"measurement": "inhibition of hERG current", "setting": "hERG", "value": "~42", "unit": "%"}, {"measurement": "remaining binding at 10 µM", "setting": "ERBB2", "value": 31, "unit": "%"}, {"measurement": "remaining binding at 10 µM", "setting": "ERBB4", "value": 3.3, "unit": "%"}]}
